According to PMC3871636 (PLoS ONE, 2013):

Tests used:
[1] = biological target: T1, double-labeled CYP3A4 (C64/C468)-DY/ER (Homo sapiens, UniProt P08684, S18F, form not given); assay: Steady-state LRET titration (delayed emission); type: binding
Description: (§1) All absorbance and fluorescence assays (including the time-resolved fluorescence measurements) were performed at a protein concentration ≤1 µM at 25°C with continuous stirring. Absorbance spectra were recorded with an S2000 rapid scanning CCD spectrometer (Ocean Optics). Ligand binding assays were done in 100 mM Na-Hepes buffer, pH 7.4, containing 0.5 mM EDTA.
(§2) Fluorescence-based ligand binding assays were done under anaerobic conditions. Anaerobiosis was achieved using an oxygen-scavenging system consisting of protecatechuate-3,4-dioxygenase (0.5 units/ml) and 5 mM protocatechuic acid. The steady state and time-resolved phosphorescence measurements were performed with the use of a Cary Eclipse fluorescence spectrophotometer (Varian/Agilent Technologies). The excitation wavelength was set to 540 nm. Spectra were taken from 650 to 860 nm with 100 µs delay.
(§3) Quantitative interpretation of LRET results was also based on the use of PCA applied to a series of emission spectra normalized on integral intensity. […] Intensity of the donor and acceptor fluorescence obtained in this way were used in determination of the efficiency of steady-state LRET using the equation [drawing 1] (Eq.1) where I ad is emission intensity of the acceptor, I da is the residual donor emission in the presence of acceptor (I da), Φ a and Φ d are the quantum yield of the fluorescence of acceptor and the quantum yield of the phosphorescence of donor, respectively.
(§4) Distances were calculated using the equation: [drawing 3] (Eq.3) where R 0 is the Förster distance, and R is the distance between the donor and acceptor. R 0 was calculated with the use of PhotoChemCad software. In these calculations, we used the values of the orientation factor (κ^2) and the refractive index (n) of 0.667 and 1.4, respectively.
(§5) When fitting the results of titration experiments, where the changes in the monitored signal A S (fraction of the enzyme in the high-spin state, intensity or the lifetime of the donor phosphorescence at a given substrate concentration) were assumed to be proportional to [ES], this equation was complemented with the offset A 0 and the scaling factor A max to yield the following relationship: [drawing 5] (Eq.5)

[2] = biological target: CYP3A4 (double-labeled (C64/C468)-DY/ER) (Homo sapiens, UniProt P08684, form not given/S18F); assay: Steady-state LRET titration (delayed emission); type: binding; details: human, purified double-labeled CYP3A4 (C64/C468)-DY/ER protein, pH 7.4; (C64/C468)-DY/ER; LRET titration; read-out: K d, steady-state fluorescence
Description: as §1, §2, §3, §4, §5

[3] = biological target: CYP3A4 (double-labeled (C64/C468)-ER/DY) (Homo sapiens, UniProt P08684, form not given/S18F); assay: Steady-state LRET titration (delayed emission); type: binding; details: human, purified double-labeled CYP3A4 (C64/C468)-ER/DY protein, pH 7.4; (C64/C468)-ER/DY; LRET titration; read-out: K d, steady-state fluorescence
Description: as §1, §2, §3, §4, §5

[4] = biological target: T2, double-labeled CYP3A4 (C64/C468)-ER/DY (Homo sapiens, UniProt P08684, S18F, form not given); assay: Steady-state LRET titration (delayed emission); type: binding
Description: as §1, §2, §3, §4, §5

[5] = biological target: T3, double-labeled CYP3A4 C377/C468-DY/ER (Homo sapiens, UniProt P08684, S18F, form not given); assay: Steady-state LRET titration (delayed emission); type: binding; details: Table S2, protein C377/C468-ER/DY
Description: as §1, §2, §3, §4, §5

[6] = biological target: T4, double-labeled CYP3A4 C64/C121-DY/ER (Homo sapiens, UniProt P08684, A121C/C239S/C377S/C468A/C98S/S18F); assay: Steady-state LRET titration (delayed emission); details: Table S2; protein C64/C121-ER/DY; same ligand concentrations
Description: as §1, §2, §3, §4, §5

[7] = biological target: T1, double-labeled CYP3A4 (C64/C468)-DY/ER; assay: Time-resolved LRET (phosphorescence lifetime measurements)
Excerpt: (§6) The excitation wavelength was set to 540 nm.

[8] = biological target: T2, double-labeled CYP3A4 (C64/C468)-ER/DY; assay: as above
Excerpt: as §6

[9] = biological target: T3, double-labeled CYP3A4 C377/C468-DY/ER; assay: as above
Excerpt: as §6

[10] = biological target: T4, double-labeled CYP3A4 C64/C121-DY/ER; assay: as above; details: same ligand concentrations
Description: as §1, §2
The treatment of the time-resolved decay traces was performed using a bi-exponential approximation. The efficiency of time-resolved LRET was calculated using the equation [drawing 2] (Eq.2)
In this equation τda and τd designate the average lifetime of the excited state of the donor in the presence and absence of the acceptor, respectively. These average lifetimes are determined as τ = α1τ1+α2τ2, where τ1,2 and α1,2 stay for the lifetime and the relative amplitude of each of the two exponential terms. In our calculations of the lifetime in double-labeled C64/C468, C377/C468 and C64/C121 proteins we used the lifetimes of phosphorescence measured with the respective proteins labeled with ERIA at a label:protein ratio 2∶1 as the estimates of τd.
as §4

[11] = Table S2, C64/C468-DY/ER, 1-PB 40 µM, ANF 100 µM, BCT 2.5 µM, cholesterol 100 µM, testosterone 100 µM
[12] = Table S2, C64/C468-DY/ER, same ligand concentrations
[13] = Table S2, C64/C468-ER/DY, 1-PB 40 µM, ANF 100 µM, BCT 2.5 µM, cholesterol 100 µM, testosterone 100 µM
[14] = Table S2, C64/C468-ER/DY, same ligand concentrations
[15] = (C64/C468)-DY/ER, nearly-saturating ligand: ANF 100 µM, bromocriptine 2.5 µM, cholesterol 50 µM, testosterone 100 µM
[16] = Table S1, (C64/C468)-DY/ER, same ligand concentrations
[17] = (C64/C468)-ER/DY, nearly-saturating ligand: ANF 100 µM, bromocriptine 2.5 µM, cholesterol 50 µM, testosterone 100 µM
[18] = Table S1, (C64/C468)-ER/DY, same ligand concentrations
[19] = Table S1, protein (C377/C468)-ER/DY, same ligand concentrations
[20] = Table S2, protein C377/C468-ER/DY, same ligand concentrations
[21] = Table S1, protein (C64/C121)-ER/DY
[22] = Table S2, protein C64/C121-ER/DY

T2 sequence (P08684 13-503 S18F, form open): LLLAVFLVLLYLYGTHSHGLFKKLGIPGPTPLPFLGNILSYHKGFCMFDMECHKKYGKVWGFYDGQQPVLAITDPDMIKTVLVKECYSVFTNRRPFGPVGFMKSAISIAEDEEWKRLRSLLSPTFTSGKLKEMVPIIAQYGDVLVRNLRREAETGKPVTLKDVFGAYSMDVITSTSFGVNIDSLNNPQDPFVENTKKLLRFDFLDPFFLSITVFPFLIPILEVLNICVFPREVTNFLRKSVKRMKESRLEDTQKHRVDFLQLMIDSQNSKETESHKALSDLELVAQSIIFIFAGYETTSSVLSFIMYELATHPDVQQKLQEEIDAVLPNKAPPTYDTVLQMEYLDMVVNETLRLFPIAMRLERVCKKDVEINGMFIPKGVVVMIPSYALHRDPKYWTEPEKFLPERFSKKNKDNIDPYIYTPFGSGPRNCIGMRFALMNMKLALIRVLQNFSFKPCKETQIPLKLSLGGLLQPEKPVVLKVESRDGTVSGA
T3 sequence (P08684 13-503 S18F, form open): as above
T1 sequence (P08684 13-503 S18F, form open): as above
T4 sequence (P08684 with tags, fused parts or gaps S18F/C98S/A121C/C239S/C377S/C468A limits assumed): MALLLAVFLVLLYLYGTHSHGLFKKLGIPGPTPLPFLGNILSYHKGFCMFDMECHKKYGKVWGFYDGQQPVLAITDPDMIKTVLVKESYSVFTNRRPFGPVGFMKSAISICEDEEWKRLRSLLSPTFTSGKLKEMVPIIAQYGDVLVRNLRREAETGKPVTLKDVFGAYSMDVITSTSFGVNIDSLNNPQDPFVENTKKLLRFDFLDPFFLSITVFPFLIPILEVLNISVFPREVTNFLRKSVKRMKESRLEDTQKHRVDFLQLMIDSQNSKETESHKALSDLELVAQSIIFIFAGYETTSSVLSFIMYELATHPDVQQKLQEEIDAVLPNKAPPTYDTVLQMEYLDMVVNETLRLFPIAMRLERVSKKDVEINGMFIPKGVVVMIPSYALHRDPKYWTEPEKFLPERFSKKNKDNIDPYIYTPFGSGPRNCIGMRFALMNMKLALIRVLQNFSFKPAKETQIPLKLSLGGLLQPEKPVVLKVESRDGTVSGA
Chain of CYP3A4 (double-labeled (C64/C468)-ER/DY) (P08684 13-503 S18F, form open): as the sequence (P08684 13-503 S18F, form open) above
Chain of CYP3A4 (double-labeled (C64/C468)-DY/ER) (P08684 13-503 S18F, form open): as above

Q: What does the source list for CC(C)CCC[C@@H](C)[C@H]1CC[C@H]2[C@@H]3CC=C4C[C@@H](O)CC[C@]4(C)[C@H]3CC[C@]12C [Cholesterol, cholesterol]?
A: ΔR (change in interprobe distance), steady-state fluorescence ([1]; (C64/C468)-DY/ER): 5.9±2.0 Å; ΔE (change in LRET efficiency), steady-state fluorescence ([1]; (C64/C468)-DY/ER, from maximal relative change in donor intensity): −11±1%; E (LRET efficiency with ligand), steady-state measurements [1, 11]: 24 ± 1%; R (interprobe distance with ligand), steady-state measurements [1, 12]: 40.8 ± 2.0 Å; ΔR, steady-state measurements [1, 12]: 5.9 ± 2.0 Å; Kd [2]: 6.5 ± 1.1 µM; Kd [3]: 7.7 ± 0.9 µM; ΔR (change in interprobe distance), steady-state fluorescence ([4]; (C64/C468)-ER/DY): 3.5±0.7 Å; ΔE (change in LRET efficiency), steady-state fluorescence ([4]; (C64/C468)-ER/DY, from maximal relative change in donor intensity): −10±5%; E (LRET efficiency with ligand), steady-state measurements [4, 13]: 19 ± 1%; R (interprobe distance with ligand), steady-state measurements [4, 14]: 42.6 ± 0.7 Å; ΔR, steady-state measurements [4, 14]: 3.5 ± 0.7 Å; E (LRET efficiency with ligand), steady-state measurements ([5]; 1-PB 40 µM, ANF 100 µM, BCT 2.5 µM, cholesterol 100 µM, testosterone 100 µM): 14 ± 0%; R (interprobe distance with ligand), steady-state measurements ([5]; same ligand concentrations): 45.2 ± 0.1 Å; ΔR, steady-state measurements ([5]; same ligand concentrations): 0.5 ± 0.1 Å; R (interprobe distance with ligand), steady-state measurements [6]: 43.6 ± 0.5 Å; ΔR, steady-state measurements [6]: 1.0 ± 0.5 Å; ΔELT (change in LRET efficiency), lifetime measurements [7, 15]: −5.9±3%; ΔR (change in interprobe distance), lifetime measurements [7, 15]: 1.6±1.0 Å; τ1 (phosphorescence decay time with ligand) ([7]; Table S1, (C64/C468)-DY/ER, 1-PB 40 µM, ANF 100 µM, BCT 2.5 µM, cholesterol 100 µM, testosterone 100 µM, bi-exponential fit): 59 ± 1 µs; F1 (fraction of first exponential) [7, 16]: 43 ± 2%; τ2 (phosphorescence decay time with ligand) [7, 16]: 221 ± 1 µs; τav (average phosphorescence lifetime with ligand) [7, 16]: 152 ± 6 µs; E (LRET efficiency with ligand), lifetime measurements [7, 11]: 35 ± 3%; R (interprobe distance with ligand), lifetime measurements [7, 12]: 38.3 ± 0.7 Å; ΔR, lifetime measurements [7, 12]: 1.6 ± 0.7 Å; ΔELT (change in LRET efficiency), lifetime measurements [8, 17]: −16.6±1%; ΔR (change in interprobe distance), lifetime measurements [8, 17]: 4.8±0.2 Å; τ1 (phosphorescence decay time with ligand) ([8]; Table S1, (C64/C468)-ER/DY, 1-PB 40 µM, ANF 100 µM, BCT 2.5 µM, cholesterol 100 µM, testosterone 100 µM, bi-exponential fit): 79 ± 1 µs; F1 (fraction of first exponential) [8, 18]: 53 ± 7%; τ2 (phosphorescence decay time with ligand) [8, 18]: 268 ± 2 µs; τav (average phosphorescence lifetime with ligand) [8, 18]: 173 ± 1 µs; E (LRET efficiency with ligand), lifetime measurements [8, 13]: 26 ± 1%; R (interprobe distance with ligand), lifetime measurements [8, 14]: 41.1± 0.2 Å; ΔR, lifetime measurements [8, 14]: 4.8 ± 0.2 Å; τ1 (phosphorescence decay time with ligand) ([9]; Table S1, protein (C377/C468)-ER/DY, 1-PB 40 µM, ANF 100 µM, BCT 2.5 µM, cholesterol 100 µM, testosterone 100 µM, bi-exponential fit): 38 ± 1 µs; F1 (fraction of first exponential) [9, 19]: 23 ± 5%; τ2 (phosphorescence decay time with ligand) [9, 19]: 163 ± 8 µs; τav (average phosphorescence lifetime with ligand) [9, 19]: 134 ± 3 µs; E (LRET efficiency with ligand), lifetime measurements ([9]; Table S2, protein C377/C468-ER/DY, 1-PB 40 µM, ANF 100 µM, BCT 2.5 µM, cholesterol 100 µM, testosterone 100 µM): 26 ± 2%; R (interprobe distance with ligand), lifetime measurements [9, 20]: 41.0 ± 0.6 Å; ΔR, lifetime measurements [9, 20]: 4.2 ± 0.6 Å; F1 (fraction of first exponential) [10, 21]: 44 ± 3%; τ2 (phosphorescence decay time with ligand) [10, 21]: 222 ± 8 µs; τav (average phosphorescence lifetime with ligand) [10, 21]: 154 ± 1 µs; R (interprobe distance with ligand), lifetime measurements [10, 22]: 35.8 ± 0.1 Å; ΔR, lifetime measurements [10, 22]: 0.8 ± 0.1 Å
